{"source": "patent US9504755B2", "about": "“Multi-arm polymeric alkanoate conjugates” (Nektar Therapeutics, priority 2008, dated 2016)", "key": {"[1]": {"assay": "Population pharmacokinetic modeling of terminal disposition rate constant, rats", "assay_type": "in vivo", "settings": "rat, in vivo", "description": "To further evaluate the sustained plasma docetaxel terminal half-life, a population pharmacokinetic approach was employed.\nWhile determining the pharmacokinetics of docetaxel after administration of docetaxel or 4-ARM-PEG20K-BA-docetaxel, it was observed that reliable values for the terminal disposition rate constant λz could not be obtained for the majority of animals secondary to fluctuation of plasma docetaxel concentrations between adjacent sampling times and/or the occurrence of incomplete concentration-time profiles due to concentrations being near or at the lower limit of quantification (1 ng/mL). In addition, in Example 14, rats were sampled in groups of 15 using alternating, overlapping sparse sampling schemes across groups to encompass the total duration of sampling. All of these factors contributed to the occurrence of sparse data within a given animal's terminal concentration-time profile.\nTo further investigate and compare docetaxel terminal disposition patterns between docetaxel and 4-ARM-PEG20K-BA-docetaxel, population pharmacokinetic methods were applied to data from rats (Example 14) and dogs (Example 15 and in one additional study). This allowed estimation of population λz values and corresponding half-life values for each treatment group in the presence of incomplete data within individual animals. Specifically, data from all animals within a treatment group and all treatment groups were fit with a nonlinear mixed effect pharmacokinetic model using the program Monolix. Plasma docetaxel concentrations following docetaxel or 4-ARM-PEG20K-BA-docetaxel administration, and plasma 4-ARM-PEG20K-BA-docetaxel concentrations following 4-ARM-PEG20K-BA-docetaxel administration were fit with a model specifying zero-order input of the dose over a defined infusion period and biexponential disposition (Monolix PK Model 26). Docetaxel concentration-time data after 4-ARM-PEG20K-BA-docetaxel were fit with a model having first order input, to reflect metabolism of 4-ARM-PEG20K-BA-docetaxel to the active docetaxel metabolite, and biexponential disposition (Monolix PK Model 31). The parameter of interest for this investigation was the population terminal disposition rate constant, λz to supplement the results described above."}, "[2]": {"assay": "Pharmacokinetics after IV infusion in Sprague-Dawley rats", "assay_type": "in vivo, rat", "settings": "Sprague-Dawley, rat, plasma, male rats, single IV dose 5 mg/kg", "protocol": "The objective of this study was to assess the pharmacokinetics and excretion of docetaxel and 4-ARM-PEG20K-BA-docetaxel after intravenous infusion to rats.\nPharmacokinetics of 4-ARM-PEG20K-BA-docetaxel and docetaxel were evaluated in male rats (15 rats/dose level) dosed with 5, 10, and 15 mg/kg (30, 60, 90 mg/m^2) 4-ARM-PEG20K-BA-docetaxel or 5 mg/kg (30 mg/m^2) docetaxel. 4-ARM-PEG20K-BA-docetaxel and docetaxel were administered via a femoral vein catheter as 30-min intravenous infusions at 4 mL/kg. Blood samples (n=15 timepoints with n=5 samples/dose level/timepoint) were obtained by jugular venipuncture between pre-dose and 144 hours post-dose."}, "[3]": {"tested_on": "LoVo tumors", "assay": "Anti-tumor activity in LoVo colorectal mouse xenograft model", "assay_type": "in vivo", "protocol": "H460, LS174T and LoVo tumors were established in female athymic nude mice. Groups of 10 mice received a total of three single doses of 4-ARM-PEG20K-BA-DOC or docetaxel administered every 7 days (q7d×3) at several doses up to a maximum tolerated dose (MTD). Control groups received no treatment after tumor implant. Animals were weighed daily for the first five days and twice weekly thereafter. Tumor volumes were measured twice weekly after the first drug injection.\nAnti-tumor activity was measured as changes in tumor volume, time to reach endpoint, and complete or partial tumor regression.\nTreatment outcome was evaluated by Tumor Growth Delay (TGD), which is defined as the increase in median time to endpoint in a treatment group compared to the control group. Here it is expressed as % TGD, as a percentage to the median time to endpoint of the control group.\nA tumor whose volume was reduced to 50% or less for three consecutive measurements compared to its volume on Day 1 was considered to be in partial regression. Complete regression was defined as volume […] 13.5 mm^3 for three consecutive measurements.\nAcceptable toxicity was defined as a group mean body weight (BW) loss of less than 20% during the study and not more than one treatment-related death among ten treated animals."}, "[4]": {"assay": "Pharmacokinetics after IV infusion in Beagle dogs", "assay_type": "in vivo, dog", "settings": "Beagle, dog, plasma, male dogs, single IV dose 0.75 mg/kg", "protocol": "The objective of the study was to assess the pharmacokinetics and excretion of docetaxel and 4-ARM-PEG20K-BA-docetaxel after intravenous infusion to dogs.\nPharmacokinetics were evaluated in male dogs (4 dogs/dose level) dosed with 0, 0.75, 2, or 4 mg/kg (0, 15, 40, and 80 mg/m^2/dose) of 4-ARM-PEG20K-BA-docetaxel or 0.75 mg/kg (15 mg/m^2) docetaxel. 4-ARM-PEG20K-BA-docetaxel and docetaxel were administered via a cephalic or saphenous vein disposable catheter as 60-min intravenous infusions at 4 mL/kg/hr. Seventeen blood samples were obtained by jugular venipuncture or Abbacoth IV catheter between 0 and 168 hr post-dose. Plasma concentrations of 4-ARM-PEG20K-BA-docetaxel and docetaxel were determined."}, "[5]": {"settings": "read-out: AUClast, analyte docetaxel"}, "[6]": {"settings": "read-out: Cmax, analyte docetaxel"}, "[7]": {"settings": "read-out: Tmax, analyte docetaxel"}, "[8]": {"settings": "12.7 mg/kg (38.1 mg/m^2), q7d×3"}, "[9]": {"settings": "16.9 mg/kg (50.7 mg/m^2), q7d×3"}, "[10]": {"settings": "22.5 mg/kg (67.5 mg/m^2), q7d×3"}}, "note": "Marks after values point to notes of the source that are not given here.", "data": [{"smiles": "CC(=O)O[C@@]12CO[C@@H]1C[C@H](O)[C@@]1(C)C(=O)[C@H](O)C3=C(C)[C@@H](OC(=O)[C@H](O)[C@@H](NC(=O)OC(C)(C)C)c4ccccc4)C[C@@](O)([C@@H](OC(=O)c4ccccc4)[C@H]21)C3(C)C", "note": "[Docetaxel, reference compound]", "values": [{"measurement": "t½λz, plasma docetaxel", "setting": "[1]", "result": 40, "unit": "h"}, {"measurement": "AUC(0-t)", "setting": "[2]; [5]", "result": 1.42, "unit": "µg·h/mL"}, {"measurement": "Cmax", "setting": "[2]; [6]", "result": 0.682, "unit": "µg/mL"}, {"measurement": "Tmax", "setting": "[2]; [7]", "result": 30, "unit": "min"}, {"measurement": "BW Loss (%)", "setting": "[3]; [8]", "result": 5.0, "unit": "%"}, {"measurement": "Day of BW Nadir", "setting": "[3]; [8]", "result": 24}, {"measurement": "No. Surviving/No. Treated Mice", "setting": "[3]; [8]", "result": "10/10"}, {"measurement": "PR (partial regressions)", "setting": "[3]; [8]", "result": 0}, {"measurement": "TGD (%)", "setting": "[3]; [8]", "result": 7, "unit": "%"}, {"measurement": "BW Loss (%)", "setting": "[3]; [9]", "result": 12.8, "unit": "%"}, {"measurement": "Day of BW Nadir", "setting": "[3]; [9]", "result": 21}, {"measurement": "No. Surviving/No. Treated Mice", "setting": "[3]; [9]", "result": "10/10"}, {"measurement": "PR (partial regressions)", "setting": "[3]; [9]", "result": 0}, {"measurement": "TGD (%)", "setting": "[3]; [9]", "result": "70** %"}, {"measurement": "BW Loss (%)", "setting": "[3]; [10]", "result": 14.6, "unit": "%"}, {"measurement": "Day of BW Nadir", "setting": "[3]; [10]", "result": 24}, {"measurement": "No. Surviving/No. Treated Mice", "setting": "[3]; [10]", "result": "10/10"}, {"measurement": "PR (partial regressions)", "setting": "[3]; [10]", "result": 0}, {"measurement": "TGD (%)", "setting": "[3]; [10]", "result": "32* %"}, {"measurement": "BW Loss (%)", "setting": "[3]; 30 mg/kg (90 mg/m^2), q7d×3", "result": 13.3, "unit": "%"}, {"measurement": "Day of BW Nadir", "setting": "[3]; 30 mg/kg (90 mg/m^2), q7d×3", "result": 21}, {"measurement": "No. Surviving/No. Treated Mice", "setting": "[3]; 30 mg/kg (90 mg/m^2), q7d×3", "result": "10/10"}, {"measurement": "PR (partial regressions)", "setting": "[3]; 30 mg/kg (90 mg/m^2), q7d×3", "result": 0}, {"measurement": "TGD (%)", "setting": "[3]; 30 mg/kg (90 mg/m^2), q7d×3 (MTD for both agents)", "result": "64** %"}, {"measurement": "TGD (%)", "setting": "[3]; 30 mg/kg (90 mg/m^2), q7d×3 (MTD for both agents), listed as docetaxel", "result": 64, "unit": "%"}, {"measurement": "AUC(0-t)", "setting": "[4]; [5]", "result": 0.479, "unit": "µg·h/mL"}, {"measurement": "Cmax", "setting": "[4]; [6]", "result": 0.223, "unit": "µg/mL"}, {"measurement": "Tmax", "setting": "[4]; [7]", "result": 52.8, "unit": "min"}]}]}
